Calls of active or inactive are those of the source.

Drawing on ChEMBL document CHEMBL2390845, “Identification of PDZ ligands by docking-based virtual screening for the development of novel analgesic agents” (Bioorg Med Chem Lett, 2013), this text covers Activity for three compounds.

For experiment [1], the target named is Disks large homolog 4 (Homo sapiens) (UniProt P78352). Put plainly: Binding affinity to PSD-95 PDZ2 domain (unknown origin) expressed in Escherichia coli BL21 at 1 mM by 1H-15N HSQC NMR analysis.
Disks large homolog 4 (Homo sapiens), sequence (P78352 whole entry, looked up, the tested form may be a part): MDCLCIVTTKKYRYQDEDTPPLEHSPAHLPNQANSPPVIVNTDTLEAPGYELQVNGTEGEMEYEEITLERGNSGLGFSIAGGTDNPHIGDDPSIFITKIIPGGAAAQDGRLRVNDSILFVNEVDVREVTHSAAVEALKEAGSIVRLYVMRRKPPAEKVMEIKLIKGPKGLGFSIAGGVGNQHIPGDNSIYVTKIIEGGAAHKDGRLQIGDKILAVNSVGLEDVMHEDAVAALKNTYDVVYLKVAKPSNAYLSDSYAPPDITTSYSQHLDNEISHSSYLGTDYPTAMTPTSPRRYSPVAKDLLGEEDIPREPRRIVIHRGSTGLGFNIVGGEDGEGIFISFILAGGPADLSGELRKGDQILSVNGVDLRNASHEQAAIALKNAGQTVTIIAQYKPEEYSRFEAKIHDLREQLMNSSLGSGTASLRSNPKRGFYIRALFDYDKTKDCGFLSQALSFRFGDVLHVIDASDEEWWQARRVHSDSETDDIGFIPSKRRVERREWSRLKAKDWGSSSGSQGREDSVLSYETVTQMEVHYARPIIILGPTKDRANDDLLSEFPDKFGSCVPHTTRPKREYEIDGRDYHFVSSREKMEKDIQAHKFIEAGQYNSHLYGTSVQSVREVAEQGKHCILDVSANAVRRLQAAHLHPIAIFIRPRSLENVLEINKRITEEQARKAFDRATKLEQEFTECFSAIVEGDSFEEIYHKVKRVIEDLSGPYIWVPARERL
For experiment [2] the target is unchanged. Put plainly: Binding affinity to PSD-95 PDZ1 domain (unknown origin) expressed in Escherichia coli BL21 at 1 mM by 1H-15N HSQC NMR analysis.
Experiment [3] deals with Rattus norvegicus. As to the kind of experiment: Antihyperalgesic activity in intrathecally dosed chronic constriction nerve injury-induced rat neuropathic pain model assessed as vocalisation threshold to paw-pressure measured up to 120 mins post-compound treatment. It is filed as functional, organism-based.
The test system of experiment [4] is Rattus norvegicus. As to the kind of experiment: Antihyperalgesic activity in chronic constriction nerve injury-induced rat neuropathic pain model assessed as reduction in mechanical hyperalgesia measuring vocalisation threshold to paw-pressure at 122.6 ng administered intrathecally measured 15 mins post-compound treatment. It is filed as functional, organism-based.

In the case of `O=C(O)c1ccc(N[C@@H]2O[C@H](CO)[C@@H](O)[C@H](O)[C@H]2O)cc1`, the result in experiment [1] and in experiment [2] was inactive.

Turning to `Cc1cc2cc(C)c(C(=O)O)nc2cc1C(=O)O`, the Activity result in the experiment on Rattus norvegicus [3] was “Dose-dependent effect”. Besides, the result (in experiment [1]; with Rattus norvegicus [4]; in experiment [2]) was Active.

With `O=C(N/N=C/c1cccc(O)c1O)c1ccc(O)cc1`, the outcome in experiment [1] and in experiment [2] was inactive.
